Source: EP4778933A1 (Chengdu Hyperway Pharmaceuticals Co., Ltd., priority 2023, dated 2025)
Like-named read-outs stand apart in the source and are kept apart here.

Columns and labels:
[1] = system: KRAS G12D-mediated ERK phosphorylation; test: Inhibition of KRAS G12D-mediated ERK phosphorylation in AGS cells (in-cell pERK/GAPDH immunofluorescence); type: cell-based; details: AGS cells, 3 h incubation, read-out: Inhibitory activity on ERK phosphorylation (IC50) AGS-G12D
Procedure, shortened: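 AGS, SW480, NCI H358 and KP2 cells were seeded overnight, then treated with compounds for 3 h at 37°C. After fixation, permeabilization and blocking, pERK and GAPDH were immunostained and read by two-colour infrared fluorescence. The pERK/GAPDH ratio was normalized to DMSO and 10 µM reference controls, and IC50 was fitted with a four-parameter logistic model.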

[2] = system: human colon cancer GP2D mouse xenograft tumors; test: In vivo drug efficacy, GP2D subcutaneous xenograft tumor model; parameters: species or system Balb/c nude mouse; details: 30 mg/kg, PO; for inhibitory effects on human colon cancer GP2D mouse xenograft tumors: BID, 28 days; for Tumor volume inhibition rate (TGI): GP2D xenograft, BID × 28, day 28
Description: A human colon cancer GP2D cell subcutaneous xenograft tumor Balb/c nude mouse model was established. GP2D tumor cells resuspended in DMEM medium were inoculated subcutaneously on the right side of the experimental animal at 1×10^7 + gel/0.1 mL. When the tumor grew to about 150-200 mm^3, administration in groups began, with 5 animals in each group. On the day of the experiment, the animals were given corresponding drugs according to the groups. The first group G1 was set as a solvent group, and 50 mM citrate buffer (pH 5.0) + 10% Captisol was given by gavage alone. The second group G2 was given a 50 mM citrate buffer (pH 5.0) + 10% Captisol of compound 26. The third group G3 was given a 50 mM citrate buffer (pH 5.0) + 10% Captisol of compound 31. Table 5: Study on effect of test substances on animal tumor size in human colon cancer GP2D mouse xenograft tumor model
(§1) During the experiment, the body weight and tumor size of the animals were measured twice a week, and the clinical symptoms of the animals were observed and recorded every day. Each drug administration was based on the most recent weighing of the animals.
(§2) The tumor was measured with a digital vernier caliper to measure the length (a) and width (b). The tumor volume (TV) was calculated using the following formula: TV = a × b^2 /2. [formula]

[3] = system: human ovarian cancer RKN mouse xenograft tumors; test: In vivo drug efficacy, RKN subcutaneous xenograft tumor model; parameters: species or system Balb/c nude mice; details: 50 mg/kg, PO; for inhibitory effects on human ovarian cancer RKN mouse xenograft tumors: BID, 28 days; for Tumor volume inhibition rate (TGI): RKN xenograft, BID × 28, day 28
Description: A subcutaneous xenograft tumor model of human ovarian cancer RKN (derived from uterine leiomyosarcoma) cells was established in Balb/c nude mice. RKN tumor cells resuspended in Ham's F12 medium were inoculated subcutaneously on the right side of the experimental animals at 5×10^6 + gel/0.1 mL. When the tumor grew to about 150-200 mm^3, 20 animals having relatively uniform tumor volumes were selected for group administration, with a total of 4 groups, 5 animals in each group. On the day of the experiment, the animals were given the corresponding drugs according to the groups. The first group G1 was set as a solvent group, and 50 mM citrate buffer (pH 5.0) + 10% Captisol was given by gavage alone. The second group G2 was given a 50 mM citrate buffer (pH 5.0) + 10% Captisol of compound 21. The third group G3 was given a 50 mM citrate buffer (pH 5.0) + 10% Captisol of compound 26. The fourth group G4 was given a 50mM citrate buffer (pH 5.0) + 10% Captisol of compound 31. Table 7: Study on effect of test substances on animal tumor size in the human ovarian cancer RKN mouse xenograft tumor model
as §1, §2

[4] = In vivo pharmacokinetic test in rats; parameters: species or system SD Rats; details: male rats; for F: oral 30 mg/kg vs intravenous; for AUC / Cmax: rat, oral, single dose 30 mg/kg, plasma
Description: Each test compound was administered orally once to male […] rats for pharmacokinetic study. The test compounds were prepared on the day of administration. The intravenous administration solvent: 5% DMSO + 10% solutol + 85% saline; and the oral administration solvent: 50 mM sodium citrate (pH 5.0) + 10% captisol. The oral administration was conducted in a dose of 30 mg/kg. The animals were fasted for 10-14 h before oral administration, and the feeding was resumed 4 h after administration. Pharmacokinetic samples were collected through the orbit. The collection time points were: 5 min (intravenous administration), 15 min, 30 min, 1 h, 2 h, 4 h, 6 h, 8 h and 24 h after administration. Three whole blood samples were collected at each time point, with a collection volume of about 0.2 mL, and anticoagulated with sodium heparin. After blood samples were collected, they were immediately placed on ice and centrifuged within 1 h to isolate plasma (centrifugation conditions: 8000 rpm, 1 min, 2-8°C). The collected plasma was stored in a -20°C refrigerator before analysis. The concentrations of compounds in the plasma samples were determined using an LC-MS/MS analysis method. Table 4: Pharmacokinetic test results of some compounds in SD Rats

[5] = In vivo pharmacokinetic test in mice; details: 30 mg/kg, female BALB/c mice, single dose 30 mg/kg, plasma

SMILES | IC50 ([1]; Homo sapiens, AGS, 3 h) [nM] | inhibitory effects on human colon cancer GP2D mouse xenograft tumors [2] | Tumor volume inhibition rate (TGI) [2] [%] | inhibitory effects on human ovarian cancer RKN mouse xenograft tumors [3] | Tumor volume inhibition rate (TGI) [3] [%] | F [4] [%] | AUC ([4]; in vivo) [ng·h/mL] | Cmax ([4]; in vivo) [ng/mL] | AUC ([5]; mouse, in vivo, po, read-out: AUC) [ng·h/mL] | Cmax ([5]; mouse, in vivo, po, read-out: Cmax) [ng/mL] | IC50 [1] [nM] | AUC ([4]; Sprague-Dawley (SD)) [ng·h/mL] | Cmax ([4]; Sprague-Dawley (SD)) [ng/mL] | AUC ([5]; oral) [ng·h/mL] | Cmax ([5]; oral) [ng/mL]
CC1(O)COCCN(c2nc(OCC34CCCN3C(c3cc(F)c(F)c(F)c3)CC4)nc3c(F)c(-c4cccc5sc(N)c(C#N)c45)c(Br)cc23)C1 (single isomer, unassigned) [Example 26, 2-amino-4-[6-bromo-8-fluoro-4-(6-hydroxy-6-methyl-1,4-oxazepan-4-yl)-2-({[3-(3,4,5-trifluoropheny 1)-2,3,5,6,7,7a-hexahydro-1H-pyrrolizin-7a-yl]methyl}oxy)quinazolin-7-yl]benzo[b]thiophene-3-carb onitrile] | 2.7 | significant inhibitory effects | 72.7 | significant inhibitory effects | 116 | 22.3 | 12400 | 1190 | 15800 | 4880 |  |  |  |  | 
CC1(O)COCCN(c2nc(OCC34CCCN3C(c3cc(F)c(F)c(F)c3)CC4)nc3c(F)c(-c4cccc5sc(N)c(C#N)c45)c(I)cc23)C1 (single isomer, unassigned) [Example 31, 2-amino-4-[6-iodo-8-fluoro-4-(6-hydroxy-6-methyl-1,4-oxazepan-4-yl)-2-({[3-(3,4,5-trifluorophenyl)-2,3,5,6,7,7a-hexahydro-1H-pyrrolizin-7a-yl]methyl}oxy)quinazolin-7-yl]benzo[b]thiophene-3-carbonitrile] |  | significant inhibitory effects | 86.7 | significant inhibitory effects | 116 | 21.5 |  |  |  |  | 1.9 | 11300 | 1030 | 20953 | 5124
